Values quoted from earlier work in patent US20030101005A1, “Crystals and structures of perosamine synthase homologs” (priority 2001, published 2003).

Target: T1, His-tag RfbE fusion protein (GDP-4-keto-6-deoxy-D-mannose-4-aminotransferase) (Vibrio cholerae, UniProt Q06953)
T1 construct: His-tag
Details: substrate or cosubstrate of His-tag RfbE fusion protein

T1 sequence (Q06953 whole entry, the tested form may be a part): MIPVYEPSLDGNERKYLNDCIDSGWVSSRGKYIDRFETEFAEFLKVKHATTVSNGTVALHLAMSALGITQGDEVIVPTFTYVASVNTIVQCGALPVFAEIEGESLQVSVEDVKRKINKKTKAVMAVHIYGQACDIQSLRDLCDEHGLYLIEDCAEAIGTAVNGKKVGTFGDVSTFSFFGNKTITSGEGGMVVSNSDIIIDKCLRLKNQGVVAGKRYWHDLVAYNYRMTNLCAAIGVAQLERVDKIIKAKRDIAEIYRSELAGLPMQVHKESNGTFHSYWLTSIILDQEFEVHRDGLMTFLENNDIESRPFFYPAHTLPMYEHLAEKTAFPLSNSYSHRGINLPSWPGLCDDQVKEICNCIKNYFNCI

In the case of `CC1OC(OP(=O)(O)OP(=O)(O)OCC2OC(n3cnc4c(=O)[nH]c(N)nc43)C(O)C2O)C(O)C(O)C1=O` [GDP-4-keto-6-deoxy-D-mannose], the “K(m)” value is given as 0.06 mM and the “V(max)” value is given as 38 nkat/mg protein.
For `N[C@@H](CCC(=O)O)C(=O)O` [L-glutamate], the “K(m)” value is listed as 0.1 mM and the “V(max)” value is listed as 42 nkat/mg protein.
